According to patent US9221796B2, “Selective NR2B antagonists” (BRISTOL-MYERS SQUIBB COMPANY, priority 2014, dated 2015):
Read-outs that look alike come from different tables or passages of the source.

Tests used:
[1] = target: NR2B-subtype NMDA receptors (Rattus norvegicus (Rat), UniProt P35439+Q00960); assay: Radioligand binding assay (3H Ro 25-6981 competition, forebrain membranes); details: 3H Ro 25-6981 (4 nM)
In short: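 Rat forebrain membranes competed against [3H]Ro 25-6981 for 1 hr at room temperature, then filtered onto PEI-treated GF/B plates and counted by scintillation. CPM converted to % inhibition, concentration-response curves fitted, Ki derived from at least two experiments.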

[2] = target: NR2B-subtype receptors (Mus musculus (Mouse), UniProt P35438+Q01097); assay: Ex vivo occupancy assay; type: in vivo; details: mice, after i.v. dosing
NR2B-subtype receptors, sequence (Q01097 27-1482, other chains not shown): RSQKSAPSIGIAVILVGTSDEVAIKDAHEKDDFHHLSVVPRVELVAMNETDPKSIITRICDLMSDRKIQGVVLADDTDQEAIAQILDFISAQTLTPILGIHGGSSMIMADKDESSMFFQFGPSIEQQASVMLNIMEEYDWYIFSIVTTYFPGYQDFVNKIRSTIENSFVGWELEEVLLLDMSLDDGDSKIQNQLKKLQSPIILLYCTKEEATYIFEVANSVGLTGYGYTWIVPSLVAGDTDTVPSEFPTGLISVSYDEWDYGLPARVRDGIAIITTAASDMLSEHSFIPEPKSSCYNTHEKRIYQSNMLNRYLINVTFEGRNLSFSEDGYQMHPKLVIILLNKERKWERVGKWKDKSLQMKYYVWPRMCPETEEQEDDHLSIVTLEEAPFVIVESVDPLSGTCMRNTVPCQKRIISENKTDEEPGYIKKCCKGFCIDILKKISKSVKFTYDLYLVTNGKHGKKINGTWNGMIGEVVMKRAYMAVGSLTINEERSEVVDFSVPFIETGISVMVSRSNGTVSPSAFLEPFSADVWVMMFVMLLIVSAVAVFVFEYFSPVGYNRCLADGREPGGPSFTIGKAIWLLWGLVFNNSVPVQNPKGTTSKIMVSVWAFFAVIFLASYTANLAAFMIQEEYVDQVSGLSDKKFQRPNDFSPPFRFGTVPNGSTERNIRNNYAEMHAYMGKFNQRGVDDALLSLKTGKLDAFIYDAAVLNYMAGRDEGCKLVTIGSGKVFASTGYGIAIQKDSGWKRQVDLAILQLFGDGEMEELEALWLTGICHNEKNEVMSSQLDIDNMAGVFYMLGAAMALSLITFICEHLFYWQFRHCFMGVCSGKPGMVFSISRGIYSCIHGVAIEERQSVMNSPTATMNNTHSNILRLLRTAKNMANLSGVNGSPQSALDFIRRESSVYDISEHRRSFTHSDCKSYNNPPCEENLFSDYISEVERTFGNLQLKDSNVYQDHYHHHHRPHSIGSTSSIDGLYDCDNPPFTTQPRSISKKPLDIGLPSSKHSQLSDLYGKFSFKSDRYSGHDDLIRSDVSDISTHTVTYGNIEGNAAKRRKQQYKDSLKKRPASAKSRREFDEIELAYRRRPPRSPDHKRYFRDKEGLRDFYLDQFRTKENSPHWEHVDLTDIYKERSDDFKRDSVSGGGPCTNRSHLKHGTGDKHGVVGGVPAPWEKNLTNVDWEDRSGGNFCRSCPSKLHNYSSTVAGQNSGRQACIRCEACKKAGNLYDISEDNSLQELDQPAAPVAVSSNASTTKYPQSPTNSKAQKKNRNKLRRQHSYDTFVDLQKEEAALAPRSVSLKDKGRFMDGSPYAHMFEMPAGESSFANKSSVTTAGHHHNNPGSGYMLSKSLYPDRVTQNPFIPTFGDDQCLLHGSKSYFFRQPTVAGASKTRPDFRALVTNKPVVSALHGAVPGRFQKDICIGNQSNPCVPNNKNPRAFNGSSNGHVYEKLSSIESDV
Procedure: 7-9 weeks old male CD-1 mice were dosed intravenously in a vehicle consisting of 10% dimethylacetamide, 40% PEG-400, […], and 30% water with experimental compounds and the forebrains were harvested 15 minutes […] by decapitation. The brain samples were immediately snap-frozen and stored at −80° C. On the following day, the dosed brain samples were thawed on ice for 15-20 minutes followed by homogenization using Polytron for 10 seconds in cold homogenization buffer composed of 50 mM KH2PO4 (pH adjusted to 7.4 with KOH), 1 mM EDTA, 0.005% Triton X 100 and protease inhibitor cocktail (Sigma Aldrich). The crude homogenates were further homogenized using a Dounce homogenizer and the homogenized membrane aliquots from all animals were flash-frozen and stored at −80° C. until further use. The whole homogenization process was performed on ice.
For determining occupancy, the membrane homogenates were first thawed on ice and then needle-homogenized using a 25 gauge needle. The homogenized membrane (6.4 mg/ml) was added to a 96-well plate followed by addition of ^3H Ro 25-6981 (6 nM). […] The filter plates were dried at 50° C. for 20 mins, incubated with microscint 20 for 10 minutes and read on TopCount (Perkin Elmer). […] Non-specific binding was determined using 10 μM Ro 25-6981 added to the wells containing membrane homogenates from vehicle-dosed animals. […]

[3] = system: mice; assay: Mouse Forced Swim Test (mFST); type: in vivo; details: 1 mg/Kg i.v., 15 min before swim session, 6 min test
Procedure: Mouse Forced Swim Test (mFST).
Forced Swim Test (FST) is an animal model used to assess antidepressant compounds in preclinical studies. The FST was performed similar to the method of Porsolt et al. with modifications (Porsolt R D, Bertin A, Jalfre M. Behavioral despair in mice: a primary screening test for antidepressants. Arch Int Pharmacodyn Thér 1977; 229:327-36). In this paradigm, mice are forced to swim in an inescapable cylinder filled with water. Under these conditions, mice will initially try to escape and eventually develop immobility behavior; this behavior is interpreted as a passive stress-coping strategy or depression-like behavior. […] The duration of immobility was evaluated during the total 6 min of the test and expressed as duration (sec) of immobility. […] All testing sessions were recorded with a video camera (Sony Handicam, Model: DCR—HC38E; PAL) and scoring was done using the Forced Swim Scan, Version 2.0 software (Clever Systems Inc., Reston, Va., USA; see Hayashi E, Shimamura M, Kuratani K, Kinoshita M, Hara H. Automated experimental system capturing three behavioral components during murine forced swim test. Life Sci. 2011 Feb. 28; 88(9-10):411-7 and Yuan P, Tragon T, Xia M, Leclair C A, Skoumbourdis A P, Zheng W, Thomas C J, Huang R, Austin C P, Chen G, Guitart X. Phosphodiesterase 4 inhibitors enhance […] in rodents. […]

NR2B-subtype NMDA receptors, sequence (Q00960 27-1482, other chains not shown): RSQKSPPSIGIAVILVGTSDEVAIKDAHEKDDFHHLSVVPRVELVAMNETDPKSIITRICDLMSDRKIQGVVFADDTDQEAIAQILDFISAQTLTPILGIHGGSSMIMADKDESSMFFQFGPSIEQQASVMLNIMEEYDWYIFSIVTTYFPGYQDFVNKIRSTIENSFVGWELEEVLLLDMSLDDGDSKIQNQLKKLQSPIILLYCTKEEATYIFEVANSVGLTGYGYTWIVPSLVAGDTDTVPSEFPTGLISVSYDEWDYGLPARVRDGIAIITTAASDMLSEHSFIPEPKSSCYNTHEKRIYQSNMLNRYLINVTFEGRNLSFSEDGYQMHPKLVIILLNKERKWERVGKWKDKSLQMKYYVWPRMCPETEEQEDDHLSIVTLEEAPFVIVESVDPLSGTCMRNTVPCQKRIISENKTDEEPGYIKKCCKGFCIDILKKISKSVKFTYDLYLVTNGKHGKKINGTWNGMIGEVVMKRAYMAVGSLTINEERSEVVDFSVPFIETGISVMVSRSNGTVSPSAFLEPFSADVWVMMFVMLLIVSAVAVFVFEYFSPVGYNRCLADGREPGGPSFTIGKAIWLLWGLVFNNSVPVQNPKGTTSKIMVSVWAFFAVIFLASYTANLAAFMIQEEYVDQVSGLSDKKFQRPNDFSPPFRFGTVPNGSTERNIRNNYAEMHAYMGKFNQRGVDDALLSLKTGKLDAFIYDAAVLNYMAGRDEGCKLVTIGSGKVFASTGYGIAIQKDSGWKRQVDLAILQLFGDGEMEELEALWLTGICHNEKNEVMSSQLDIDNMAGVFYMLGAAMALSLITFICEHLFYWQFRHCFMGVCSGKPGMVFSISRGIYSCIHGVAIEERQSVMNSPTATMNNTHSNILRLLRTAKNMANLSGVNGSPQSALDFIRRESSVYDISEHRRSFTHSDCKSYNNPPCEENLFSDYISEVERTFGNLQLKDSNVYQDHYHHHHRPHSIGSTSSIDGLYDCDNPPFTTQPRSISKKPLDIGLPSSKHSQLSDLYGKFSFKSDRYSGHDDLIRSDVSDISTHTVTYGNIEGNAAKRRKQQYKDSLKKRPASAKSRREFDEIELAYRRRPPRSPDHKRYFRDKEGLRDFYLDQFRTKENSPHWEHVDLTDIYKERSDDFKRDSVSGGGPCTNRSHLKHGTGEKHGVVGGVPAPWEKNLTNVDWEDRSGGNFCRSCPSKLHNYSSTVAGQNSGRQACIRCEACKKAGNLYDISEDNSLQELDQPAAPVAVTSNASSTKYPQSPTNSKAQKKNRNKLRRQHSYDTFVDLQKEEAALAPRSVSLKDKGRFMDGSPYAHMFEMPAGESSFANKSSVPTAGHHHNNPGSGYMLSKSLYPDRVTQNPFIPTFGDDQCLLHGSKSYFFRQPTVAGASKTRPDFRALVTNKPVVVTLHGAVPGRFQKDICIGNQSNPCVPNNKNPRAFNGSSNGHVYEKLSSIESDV

| Ki ([1]; read-out: NR2B Binding Ki) [nM] | SMILES | also measured |
| --- | --- | --- |
| 3 | O=C1C(N2CCC(c3ccc(O)cc3)CC2)CCN1Cc1ccc(F)cc1 (racemic) [Example 1, 1-(4-Fluorobenzyl)-3-(4-(4-hydroxyphenyl)piperidin-1-yl)pyrrolidin-2-one] | Ki ([1]; read-out: binding Ki): 4 nM; occupancy of brain-resident NR2B-subtype receptors (in words) [2]: occupies brain-resident NR2B-subtype receptors |
| 2.7 | Cc1ccc(CN2CC[C@@H](N3CC[C@@H](c4ccc(O)c(F)c4)[C@H](F)C3)C2=O)cc1 [Example 115, (R)-3-((3S,4S)-3-fluoro-4-(3-fluoro-4-hydroxyphenyl)piperidin-1-yl)-1-(4-methylbenzyl)pyrrolidin-2-one] | – |
| 2 | O=C1[C@H](N2CC[C@@H](c3ccc(O)c(F)c3)[C@H](F)C2)CCN1Cc1ccc(Cl)cc1 [Example 116, (R)-1-(4-chlorobenzyl)-3-((3S,4S)-3-fluoro-4-(3-fluoro-4-hydroxyphenyl)piperidin-1-yl)pyrrolidin-2-one] | – |
| 2.9 | O=C1[C@H](N2CC[C@@H](c3ccc(O)c(F)c3)[C@H](F)C2)CCN1Cc1ccc(C(F)F)cc1 [Example 117, P-2, (R)-1-(4-(difluoromethyl)benzyl)-3-((3S,4S)-3-fluoro-4-(3-fluoro-4-hydroxyphenyl)piperidin-1-yl)pyrrolidin-2-one] | – |

Further lines, the compound ahead of its results:

| SMILES | Ki ([1]; read-out: NR2B Binding Ki) [nM] | also measured |
| --- | --- | --- |
| Cc1ccc(CN2CC[C@@H](N3CC[C@@H](c4ccc(O)cc4)[C@H](F)C3)C2=O)cc1 [Example 46, P-4, (R)-3-((3S,4S)-3-fluoro-4-(4-hydroxyphenyl)piperidin-1-yl)-1-(4-methylbenzyl)pyrrolidin-2-one] | – | immobility time [3]: statistically significant decrease in immobility time |
| O=C1[C@H](N2CC[C@@H](c3ccc(O)cc3)[C@H](F)C2)CCN1Cc1ccc(C(F)F)cc1 [Example 114, P-1, (R)-1-(4-(difluoromethyl)benzyl)-3-((3S,4S)-3-fluoro-4-(4-hydroxyphenyl)piperidin-1-yl)pyrrolidin-2-one] | 3.5 | – |
| O=C1[C@@H](N2CC[C@@H](c3ccc(O)cc3)[C@H](F)C2)CCN1Cc1ccc(C(F)F)cc1 [Example 114, P-2, (S)-1-(4-(difluoromethyl)benzyl)-3-((3S,4S)-3-fluoro-4-(4-hydroxyphenyl)piperidin-1-yl)pyrrolidin-2-one] | 180 | – |
| O=C1[C@@H](N2CC[C@@H](c3ccc(O)c(F)c3)[C@H](F)C2)CCN1Cc1ccc(C(F)F)cc1 [Example 117, P-1, (S)-1-(4-(difluoromethyl)benzyl)-3-((3S,4S)-3-fluoro-4-(3-fluoro-4-hydroxyphenyl)piperidin-1-yl)pyrrolidin-2-one] | 79 | – |
